Assay results published in PMC12658632, “Discovery of Sesamolin as a Potential Anti-Helicobacter pylori Agent by Virtual Screening against the Essential Response Regulator HsrA with In Vitro Evaluation” (ACS Omega, 2025).
Like-named read-outs stand apart in the source and are kept apart here.

Experiments:
HsrA = target: T1, HsrA (Helicobacter pylori, UniProt O25684); test: SPR (Biacore T200, […] model); also EMSA inhibition of HsrA-DNA binding
T1 construct: gene HP_1043

[1] = target: T2, HsrA (Helicobacter pylori (strain of the recombinant protein not stated)) (UniProt O25684); test: EMSA; conditions: EMSA binding buffer (Beyotime GS005, composition and pH not stated), 25 uL, 4 uM HsrA, 50 ng each DNA, 25 C 30 min; 5% native PAGE, 0.5x TBE
T2 sequence: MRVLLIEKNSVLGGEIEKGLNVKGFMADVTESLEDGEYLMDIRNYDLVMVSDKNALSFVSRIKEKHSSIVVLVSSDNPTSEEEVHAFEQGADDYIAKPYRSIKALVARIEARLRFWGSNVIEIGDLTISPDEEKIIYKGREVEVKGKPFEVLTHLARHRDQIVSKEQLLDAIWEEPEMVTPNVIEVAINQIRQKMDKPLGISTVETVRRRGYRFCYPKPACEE

T1 sequence (O25684 entry or part of it): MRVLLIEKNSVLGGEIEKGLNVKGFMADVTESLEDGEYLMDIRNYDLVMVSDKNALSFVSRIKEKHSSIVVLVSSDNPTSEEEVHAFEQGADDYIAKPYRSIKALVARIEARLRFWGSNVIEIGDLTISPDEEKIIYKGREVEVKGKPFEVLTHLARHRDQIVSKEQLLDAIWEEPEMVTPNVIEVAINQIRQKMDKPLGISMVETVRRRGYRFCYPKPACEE

## c1cc2c(cc1O[C@H]1OC[C@H]3[C@@H]1CO[C@@H]3c1ccc3c(c1)OCO3)OCO2 [compound 3, Sesamolin]
HsrA
  Kd: 17.1 nM

## c1c2c(cc3c1OCO3)-c1cc3ccc4c(c3c[n+]1CC2)OCO4 [compound 6, Coptisine]
HsrA; read-out: Kd
  Kd: 400 nM

## GCCAAAACGCCTAAAGCCATGATAACCTTTTTCATCGTTTGTCTCCTCTACTTATCAAAATGATCTTAAAATGATACAATTACAAGTTTAAGTTTTGCTTAAAAATGAAGTGAAAATGAGAGAAATAAATATGATTTTATACATTCATATCCCCTTTTGTGAAAATAAATGCGGTTATTGCGCTTTCAA (double strand) [hp1227 promoter probe]
[1]
  binding: binds
